Data from publication PMC6321071, “Chenodeoxycholic Acid from Bile Inhibits Influenza A Virus Replication via Blocking Nuclear Export of Viral Ribonucleoprotein Complexes” (Molecules, 2018).
Counter-ions that a name gives are not always drawn. Like-named read-outs stand apart in the source and are kept apart here.

Key:
[1] = test system: H5N1; assay: microbe, parasite or virus in culture; assay type: cell-based, Influenza A virus A/Duck/Guangdong/99 (H5N1); conditions: Influenza A virus, H5N1, A549, read-out: IC50 (H5N1)
[2] = test system: PR8 (H1N1); assay: microbe, parasite or virus in culture; assay type: cell-based, Influenza A virus A/Puerto Rico/8/34 (PR8); conditions: Influenza A virus, MDCK, read-out: IC50 (PR8 (H1N1))
[3] = MTT cytotoxicity assay on A549 cells; conditions: human
[4] = test system: influenza A virus (H5N1, H9N2, H1N1); assay: microbe, parasite or virus in culture; assay type: cell-based; conditions: for IC50: Influenza A virus, read-out: IC50 range over three IAV subtypes
[5] = MTT cytotoxicity assay on MDCK cells; conditions: dog
[6] = test system: H9N2; assay: microbe, parasite or virus in culture; assay type: cell-based, Influenza A virus A/Chicken/Guangdong/96 (H9N2); conditions: Influenza A virus, H9N2, A549, read-out: IC50 (H9N2)
[7] = test system: H5N1; assay: microbe, parasite or virus in culture; assay type: cell-based, Influenza A virus A/Duck/Guangdong/99 (H5N1); conditions: Influenza A virus, H5N1, MDCK, read-out: IC50 (H5N1)
[8] = test system: PR8 (H1N1); assay: microbe, parasite or virus in culture; assay type: cell-based, Influenza A virus A/Puerto Rico/8/34 (PR8); conditions: Influenza A virus, A549, read-out: IC50 (PR8 (H1N1))
[9] = test system: H9N2; assay: microbe, parasite or virus in culture; assay type: cell-based, Influenza A virus A/Chicken/Guangdong/96 (H9N2); conditions: Influenza A virus, H9N2, MDCK, read-out: IC50 (H9N2)
[10] = test system: H5N1 virus; assay type: cell-based, Influenza A virus A/Duck/Guangdong/99 (H5N1)
[11] = test system: H5N1; assay type: cell-based, Influenza A virus A/Duck/Guangdong/99 (H5N1)
[12] = test system: nuclear export of viral RNP complexes (H5N1); assay type: cell-based, Influenza A virus A/Duck/Guangdong/99 (H5N1)
[13] = test system: H5N1; assay type: cell-based, Influenza A virus A/Duck/Guangdong/99 (H5N1); conditions: 60 μM
[14] = test system: A549 cells; assay: MTT cytotoxicity assay on A549 cells; conditions: 48 or 72 h treatment, MTT
[15] = test system: MDCK cells; assay: MTT cytotoxicity assay on MDCK cells; conditions: 48 or 72 h treatment, MTT
[16] = test system: PR8 (H1N1); assay type: cell-based, Influenza A virus A/Puerto Rico/8/34 (PR8)
[17] = test system: H9N2 virus; assay type: cell-based, Influenza A virus A/Chicken/Guangdong/96 (H9N2)

Compound	IC50 [1]	IC50 [2]	CC50 [3]	IC50 [4]	CC50 [5]	IC50 [6]	IC50 [7]	IC50 [8]	IC50 [9]	nuclear export of vRNP complexes [12]	other results
C[C@H](CCC(=O)O)[C@H]1CC[C@H]2[C@@H]3[C@@H](O)C[C@@H]4C[C@H](O)CC[C@]4(C)[C@H]3CC[C@]12C [UDCA, ursodeoxycholic acid]	34.2 ± 3.7 µM	56.2 ± 5 µM	815 ± 49.2 µM	31 to 73.7 µM	596 ± 53 µM	58.7 ± 4.5 µM	47.2 ± 3.2 µM	43 ± 4.5 µM	36.7 ± 3.5 µM		
NC(=O)c1ncn([C@@H]2O[C@H](CO)[C@@H](O)[C@H]2O)n1 [ribavirin, Ribavirin hydrochloride]										did not block	inhibition of H5N1 infection (CPE, NP expression) ([10]; 90 μM): significant inhibition; IAV inhibition (NP expression), added 6–8 hpi [11]: no inhibition; IAV inhibition (NP expression), added before 6 hpi [11]: much better IAV inhibition; reduction of progeny virus production relative to 60 μM CDCA ([4]; 90 μM): slightly more potent
C[C@H](CCC(=O)O)[C@H]1CC[C@H]2[C@@H]3[C@H](O)C[C@@H]4C[C@H](O)CC[C@]4(C)[C@H]3CC[C@]12C [CDCA, Chenodeoxycholic acid]	8.2 ± 1.2 µM	7.2 ± 0.7 µM	372 ± 41.2 µM	5.5 to 11.5 µM	121 ± 9.7 µM	11.5 ± 1.7 µM	6.5 ± 0.5 µM	7.7 ± 0.7 µM	5.5 ± 0.7 µM	inhibited	decrease of progeny virus yield, post-treatment [13]: more than 90%; progeny virus yield and viral NP production, pretreatment [13]: did not reduce; virus replication, cotreatment [13]: did not affect; concentrations with no obvious cytotoxicity [14]: ≤ 125 µM; H5N1 replication (CPE, NP expression) [10]: significantly inhibited; inhibition of virus replication (NP expression), added 4–6 and 6–8 hpi ([11]; 60 μM): more significant inhibition; progeny virus titers [4]: significantly inhibited; concentrations with no obvious cytotoxicity [15]: ≤ 62.5 µM; early NP localization events (cytosol to nucleus translocation) [12]: did not affect; anti-IAV activity, CPE (PR8 (H1N1)) [16]: reduced CPE; anti-IAV activity, CPE (H9N2) [17]: reduced CPE
CCC(=C/[C@H](C)C/C=C/C(C)=C/[C@@H](C)C(=O)[C@@H](C)[C@H](O)[C@@H](C)C/C(C)=C/C(=O)O)/C=C/[C@@H]1OC(=O)C=C[C@@H]1C [Leptomycin B (LMB), Leptomycin B]										efficiently blocked	
C[C@H](CCC(=O)O)[C@H]1CC[C@H]2[C@@H]3C[C@H](O)[C@@H]4C[C@H](O)CC[C@]4(C)[C@H]3CC[C@]12C [HDCA, hyodeoxycholic acid]	60 ± 5.5 µM	43.5 ± 2.7 µM	486 ± 55 µM	31 to 73.7 µM	414 ± 33.7 µM	53 ± 6.5 µM	41.2 ± 3.5 µM	73.7 ± 6.7 µM	31 ± 2.2 µM		
